Results from publication PMC12040169 (PLOS Biology, 2025).

Experiment: in vitro
Conditions: human, hela cells, % viability

SMILES: CC(Nc1cc(N2CCN(CCO)CC2)ccc1[N+](=O)[O-])c1ccccc1 (centres unmarked) [CBK033838]
- viability at 28.5 h, 10 µM: 106%

SMILES: O=C(OCCN1CCOCC1)c1ccccc1I [CBK033860]
- viability at 28.5 h, 10 µM: 95.4%

SMILES: CCC(=O)c1cc(F)c(N2CCN(C(=O)c3cccs3)CC2)cc1C [CBK033892]
- viability at 28.5 h, 10 µM: 104%

SMILES: CC(=O)c1ccc(NC(=O)c2cccc(Cl)c2)cc1 [CBK033939]
- viability at 28.5 h, 10 µM: 89.3%

SMILES: Cc1cc(=O)oc2cc(OC(=O)C(Cc3ccccc3)N3C(=O)c4ccccc4C3=O)ccc12 (centres unmarked) [CBK033943]
- viability at 28.5 h, 10 µM: 91.1%

SMILES: COc1cc2c(cc1OC)CN(Cc1ccc(OCc3ccccc3)c(OC)c1)CC2 [CBK033974]
- viability at 28.5 h, 10 µM: 93%

SMILES: COc1ccc2c(ccn2S(=O)(=O)c2ccc(N3CCNCC3)c(C(F)(F)F)c2)c1 [CBK034033C]
- viability at 28.5 h, 10 µM: 89.3%

SMILES: Cc1c(Cl)cccc1S(=O)(=O)Nc1ccc(C(=O)O)cc1 [CBK034050]
- viability at 28.5 h, 10 µM: 86.4%

SMILES: O=C(O)c1ccc(NS(=O)(=O)Cc2ccccc2[N+](=O)[O-])cc1 [CBK034054]
- viability at 28.5 h, 10 µM: 90.4%

SMILES: Cc1ccc(S(=O)(=O)Nc2ccc(C(=O)O)cc2)cc1 [CBK034060]
- viability at 28.5 h, 10 µM: 85.3%

SMILES: O=C(O)c1ccc(NS(=O)(=O)Cc2ccccc2)cc1 [CBK034061]
- viability at 28.5 h, 10 µM: 105%

SMILES: O=C(O)c1ccc(NS(=O)(=O)/C=C/c2ccccc2)cc1 [CBK034062]
- viability at 28.5 h, 10 µM: 100%

SMILES: O=C(O)c1ccc(NS(=O)(=O)c2ccc(C(F)(F)F)cc2[N+](=O)[O-])cc1 [CBK034063]
- viability at 28.5 h, 10 µM: 113%

SMILES: O=C(Nc1cccc(N2CCNCC2)c1)c1coc2c1C(=O)CCC2 [CBK034113T]
- viability at 28.5 h, 10 µM: 87.2%

SMILES: COc1ccc(/C=C(\C)C(=O)Nc2cccc(N3CCNCC3)c2)cc1OC [CBK034115T]
- viability at 28.5 h, 10 µM: 90.1%

SMILES: Cc1oc(-c2ccccc2)cc1C(=O)Nc1ccc(N2CCNCC2)nc1 [CBK034127T]
- viability at 28.5 h, 10 µM: 80.3%

SMILES: O=C(/C=C/c1cccnc1)Nc1cccc(N2CCNCC2)c1 [CBK034128T]
- viability at 28.5 h, 10 µM: 109%

SMILES: O=C(NCc1ccccc1OC1CCNC1)c1ccc(-c2cccc(C(F)(F)F)c2)o1 (centres unmarked) [CBK034151T]
- viability at 28.5 h, 10 µM: 101%

SMILES: COc1ccc(/C=C(\C)C(=O)NCc2ccccc2OC2CCNC2)cc1OC (centres unmarked) [CBK034157T]
- viability at 28.5 h, 10 µM: 90%

SMILES: Cc1noc(C)c1CS(=O)(=O)Cc1ccc(Cl)cc1 [CBK034194]
- viability at 28.5 h, 10 µM: 84.9%

SMILES: Cc1noc(C)c1C[S+]([O-])c1ccc(Br)cc1 (centres unmarked) [CBK034195]
- viability at 28.5 h, 10 µM: 95.6%

SMILES: O=C(O)c1ccc(CCN2CCCC2)nc1 [CBK034220]
- viability at 28.5 h, 10 µM: 107%

SMILES: Cc1ccc(NC(=O)CSc2nnc(N)[nH]2)cc1 [CBK034301]
- viability at 28.5 h, 10 µM: 110%

SMILES: C/C=N\n1c(CO)nnc1CO [CBK034325]
- viability at 28.5 h, 10 µM: 86.5%

SMILES: CC(=O)Nc1c(C)ccc(S(=O)(=O)N2CCOCC2)c1C [CBK034327]
- viability at 28.5 h, 10 µM: 98.6%

SMILES: CCOC(=O)c1cccc(NS(=O)(=O)c2cc(F)c(Br)cc2F)c1 [CBK034333]
- viability at 28.5 h, 10 µM: 89.2%

SMILES: CC(=O)Nc1cc(S(=O)(=O)N2CCOCC2)c(Br)cc1C [CBK034334]
- viability at 28.5 h, 10 µM: 92.8%

SMILES: CCOC(=O)c1cccc(NS(=O)(=O)c2c(C)noc2C)c1 [CBK034339]
- viability at 28.5 h, 10 µM: 110%

SMILES: CCOC(=O)c1cccc(NS(=O)(=O)c2ccc(C)c([N+](=O)[O-])c2)c1 [CBK034343]
- viability at 28.5 h, 10 µM: 84.8%

SMILES: CCN(CC)C(=O)c1ccc(NS(=O)(=O)c2cc(F)c(Br)cc2F)cc1 [CBK034388]
- viability at 28.5 h, 10 µM: 90.1%

SMILES: CCN(CC)C(=O)c1ccc(NS(=O)(=O)Cc2ccccc2[N+](=O)[O-])cc1 [CBK034396]
- viability at 28.5 h, 10 µM: 97.1%

SMILES: Cc1noc(C)c1S(=O)(=O)Nc1ccc(C(=O)Nc2ccc(F)cc2)cc1 [CBK034410]
- viability at 28.5 h, 10 µM: 95.1%

SMILES: CCCCC(O)(Cc1onc(-c2ccccc2)c1C(=O)N(C)C)c1ccc(CN2CCCC2)cc1 (centres unmarked) [CBK034415T]
- viability at 28.5 h, 10 µM: 113%

SMILES: CCOC(=O)CNS(=O)(=O)c1ccc(Cl)c(Cl)c1Cl [CBK034428]
- viability at 28.5 h, 10 µM: 92%

SMILES: CCCc1ccc(S(=O)(=O)NCC(=O)OCC)cc1 [CBK034429]
- viability at 28.5 h, 10 µM: 113%

SMILES: CCOC(=O)CNS(=O)(=O)c1ccc(-c2ccccc2)cc1 [CBK034435]
- viability at 28.5 h, 10 µM: 99.5%

SMILES: CCOC(=O)CNS(=O)(=O)c1ccc(F)cc1 [CBK034442]
- viability at 28.5 h, 10 µM: 92.3%

SMILES: CCOC(=O)CNS(=O)(=O)c1ccc(C(F)(F)F)cc1[N+](=O)[O-] [CBK034446]
- viability at 28.5 h, 10 µM: 102%

SMILES: O=C(O)CNS(=O)(=O)c1cc(Cl)sc1Cl [CBK034452]
- viability at 28.5 h, 10 µM: 91.4%

SMILES: COc1ccc(S(=O)(=O)NCC(=O)O)cc1OC [CBK034454]
- viability at 28.5 h, 10 µM: 96.2%

SMILES: O=C(O)CNS(=O)(=O)c1cc(Br)c(Cl)s1 [CBK034455]
- viability at 28.5 h, 10 µM: 114%

SMILES: O=C(O)CNS(=O)(=O)c1ccc(-c2ccccc2)cc1 [CBK034457]
- viability at 28.5 h, 10 µM: 98.9%

SMILES: O=C(O)CNS(=O)(=O)c1ccc2ccccc2c1 [CBK034460]
- viability at 28.5 h, 10 µM: 94.1%

SMILES: O=C(O)CNS(=O)(=O)c1cccc2cccnc12 [CBK034462]
- viability at 28.5 h, 10 µM: 85.9%

SMILES: O=C(CNS(=O)(=O)c1ccc(Cl)c(Cl)c1Cl)N1CCOCC1 [CBK034472]
- viability at 28.5 h, 10 µM: 110%

SMILES: O=C(CNS(=O)(=O)c1cc(Br)c(Cl)s1)N1CCOCC1 [CBK034474]
- viability at 28.5 h, 10 µM: 100%

SMILES: CN1CCN(C(=O)CNS(=O)(=O)c2cc(F)c(Br)cc2F)CC1 [CBK034481]
- viability at 28.5 h, 10 µM: 99.5%

SMILES: CN1CCN(C(=O)CNS(=O)(=O)c2cc(Br)c(Cl)s2)CC1 [CBK034482]
- viability at 28.5 h, 10 µM: 94%

SMILES: CCN(CC)C(=O)CNS(=O)(=O)c1ccc(OC)c(OC)c1 [CBK034499]
- viability at 28.5 h, 10 µM: 103%

SMILES: CCN(CC)C(=O)CNS(=O)(=O)Cc1ccccc1[N+](=O)[O-] [CBK034504]
- viability at 28.5 h, 10 µM: 94.3%

SMILES: O=C(CN1CCCC1=O)N1CCN(C(=O)c2ccc(Br)o2)CC1 [CBK034530]
- viability at 28.5 h, 10 µM: 90.8%

SMILES: CCCc1ccc(S(=O)(=O)Nc2ccc(C(=O)N3CCN(C)CC3)cc2)cc1 [CBK034547]
- viability at 28.5 h, 10 µM: 90.1%

SMILES: CN1CCN(C(=O)c2ccc(NS(=O)(=O)c3ccc(Oc4ccccc4)cc3)cc2)CC1 [CBK034559]
- viability at 28.5 h, 10 µM: 97.4%

SMILES: O=S(=O)(Nc1nc(CCNCCO)cs1)c1ccc(Oc2ccccc2)cc1 [CBK034632]
- viability at 28.5 h, 10 µM: 111%

SMILES: Cc1ccc(NS(=O)(=O)c2c(Br)sc3ccnc(N4CCN(C)CC4)c23)cc1 [CBK034654C]
- viability at 28.5 h, 10 µM: 103%

SMILES: CC(NC(=O)N(CCCN)Cc1ccccc1C(F)(F)F)c1ccccc1 (centres unmarked) [CBK034668C]
- viability at 28.5 h, 10 µM: 99.9%

SMILES: CC(NC(=O)N(CCCN)Cc1c[nH]c(-c2ccccc2)n1)c1cccc2ccccc12 (centres unmarked) [CBK034672C]
- viability at 28.5 h, 10 µM: 119%

SMILES: COC(=O)c1sccc1NS(=O)(=O)c1ccccc1C(F)(F)F [CBK034717]
- viability at 28.5 h, 10 µM: 108%

SMILES: COc1ccc(S(=O)(=O)Nc2sccc2C#N)cc1 [CBK034732]
- viability at 28.5 h, 10 µM: 110%

SMILES: Cc1ccc(C#N)c(S(=O)(=O)Nc2cc(N3C[C@@H](C)N[C@@H](C)C3)c3occc3c2)c1 [CBK034756C]
- viability at 28.5 h, 10 µM: 89.7%

SMILES: O=C(NC(=O)C1CCNCC1)Nc1ccccc1 [CBK034794]
- viability at 28.5 h, 10 µM: 93.8%

SMILES: CC(C)N1CCC(C(=O)NC(=O)Nc2ccc3c(c2)OCCO3)CC1 [CBK034799]
- viability at 28.5 h, 10 µM: 93.6%

SMILES: CC(C)N1CCC(C(=O)NC(=O)NCCOc2cccc3ccccc23)CC1 [CBK034807]
- viability at 28.5 h, 10 µM: 91.9%

SMILES: COc1cccc(CNC(=O)NC(=O)C2CCN(C)CC2)c1 [CBK034828]
- viability at 28.5 h, 10 µM: 91.9%

SMILES: COc1cc(CNC(=O)NC(=O)C2CCN(C(C)=O)CC2)cc(OC)c1OC [CBK034833]
- viability at 28.5 h, 10 µM: 105%
